Assay results from US20110136745A1, “METHOD OF SELECTING SOYBEANS WITH ENHANCED BIOACTIVITY AND COMPOSITIONS FOR REDUCING CANCER CELL VIABILITY” (Monsanto Technology LLC., priority 2008, published 2011).

Test system: L1210 leukemia cells
Test: Cytotoxicity assay on L1210 leukemia cells (Cell Counting Kit-8)
Conditions: positive control at 1.0 μM

COc1cc([C@@H]2c3cc4c(cc3[C@@H](O[C@@H]3O[C@@H]5CO[C@@H](C)O[C@H]5[C@H](O)[C@H]3O)[C@H]3COC(=O)[C@H]23)OCO4)cc(OC)c1O [etoposide, Etoposide]
inhibition of L1210 leukemia cell growth: 90.5%
